Results from patent US20250387360A1, “Methods and Compositions for Treatment of Addiction” (University of Connecticut, priority 2024, published 2025).

What was measured:
Format in all cases: in vivo, mouse
[1] = system: gene expression in the amygdala; experiment: Bulk RNA-seq of amygdala (DESeq2, IPA)
Description: Total RNA was isolated from amygdala samples using the Direct-zol RNA Microprep Kit (Zymoresearch, CA, U.S.A). Quantification of total RNA and assessment of its purity ratios were performed using the NanoDrop 2000 spectrophotometer (Thermo Fisher Scientific, MA, U.S.A, RRID:SCR_018042).
Total RNA libraries were prepared for transcriptome sequencing using the Zymo-Seq RiboFree Stranded Total RNA library preparation kit (Zymo Research, CA, U.S.A) following the manufacturer's instructions. Further, rRNAs were depleted as part of the sample preparation process. Libraries were validated for length and adapter dimer removal using the Agilent TapeStation 4200 D1000 High Sensitivity assay (Agilent Technologies, CA, U.S.A, RRID:SCR_019398). Subsequent quantification and normalization were carried out using the dsDNA High Sensitivity Assay for Qubit 3.0 (Life Technologies, CA, U.S.A, RRID:SCR_020311). Sample libraries were then prepared for Illumina sequencing following the manufacturer's protocol (Illumina, CA, U.S.A). All the individual samples were consolidated into a single sequencing pool, with proportions targeting 30M reads/sample, and sequenced on the Illumina NovaSeq 6000 platform (Illumina, CA, U.S.A, RRID:SCR_016387).
Raw reads were subjected to adaptor removal and quality control including filtering of low-quality reads. Filtered reads were mapped to the mouse reference genome using STAR (Spliced Transcripts Alignment to a Reference, RRID:SCR_004463). Gene expression level was estimated by transcripts per million of transcript sequences. Principal component analysis (PCA) was performed to visualize overall gene expression differences between compared groups in several major principal components. The analysis of differential gene expression (DEG) was performed using the DESeq2 (RRID:SCR_015687) package for RNA-Seq data. […] The Benjamini-Hochberg procedure, also referred to as the false discovery rate (FDR) method, was applied to correct p-values for multiple testing. We utilized Ingenuity Pathway Analysis (IPA, RRID:SCR_008653) to predict pathways associated with differentially expressed genes and employed Gene Set Enrichment Analysis (GSEA, RRID:SCR_003199) to visualize the outcomes in a heatmap. Right tailed Fisher's exact test was performed in the IPA for identifying significant canonical pathways.
To gain a molecular understanding of the effects of sodium valerate supplementation on brain function, bulk RNA sequencing (RNA-seq) analysis was performed on amygdala tissue of mice that underwent the DID paradigm after sodium valerate or NaCl (n=7 mice/group) supplementation. […] DESeq2 identified a total of 301 DEG at the adjusted p value <0.25, 126 genes at the adjusted p value <0.10, and 75 genes at the adjusted p value <0.05. […] Among these genes, the top five protein coding genes with the highest expression in sodium valerate-supplemented mice are Kcna10 (potassium voltage-gated channel, shaker-related subfamily, member 10), Pln (phospholamban), H60C (histocompatibility antigen 60c), Idi1 (isopentenyl-diphosphate delta isomerase, pseudogene 3) and Snord34 (small nucleolar RNA, C/D box 34). […] PTGS2 is a prostanoids producer that responds to inflammation. Its downregulation in the sodium valerate supplemented group (log2Fold change: −0.65; adjusted p=0.0002) indicates an anti-inflammatory effect of valerate. […] As SCFAs may function in the brain through G protein-coupled receptors (GPCRs), gene expression levels of 85 GPRs were examined in the RNAseq data. […] IPA was performed to identify changes to the molecular signaling pathways and to comparatively assess the sodium valerate effects in the amygdala. […]

[2] = system: GABA levels; experiment: GABA ELISA in stool, amygdala and plasma after DID; details: 10 days supplementation following DID, vs NaCl
Description: GABA levels in plasma, stool, and amygdala samples were determined using an ELISA kit (LDN, Labor Diagnostika Nord, Nordhorn, Germany) following the manufacturer's instructions. Plasma samples were used directly without any additional preparation. For stool and amygdala, samples, they were first thawed and then homogenized in a solution consisting of 0.01N HCl (Thermo Fisher Scientific, MA, U.S.A), ImM EDTA (Thermo Fisher Scientific, MA, U.S.A), and 4 mM sodium metabisulfite (Thermo Fisher Scientific, MA, U.S.A). After homogenization, the samples underwent centrifugation at 3000×g for 5 minutes at 4° C. before GABA estimation. To summarize the assay procedure, plasma, homogenized stool, and amygdala samples, and the kit's standards were all processed on an extraction plate. They were subsequently derivatized using an equalizing reagent and subjected to a standard competitive ELISA conducted in GABA-coated 96-well microtiter strips. The optical density (OD) of the solution within the wells was rapidly read at 450 nm using a 96-well plate reader (iMark™ Microplate Absorbance Reader; Biorad, CA, U.S.A, RRID:SCR_023799). The OD data was employed to determine the GABA concentration via a standard curve.
The levels of GABA in the amygdala were measured next, stool, and blood of the mice that underwent the DID paradigm, comparing those supplemented with sodium valerate to those supplemented with NaCl.

[3] = system: male mice (C57BL/6J); experiment: Six-week repeated DID protocol
Description: In this study, the impact of sodium valerate treatment on ethanol intake and blood ethanol concentration (BEC) was assessed using a six-week Drinking in the Dark (DID) protocol in male mice (C57BL/6J). All mice (n=30) were single-housed and had ad libitum access to food and their respective drinking water. Water bottles were removed 30 minutes prior to and throughout each DID session. During the two-week baseline period, all mice underwent a standardized DID paradigm consisting of a 4-day cycle each week: 2-hour access to 20% ethanol on days 1-3, followed by a 4-hour session on day 4. Starting in week three, mice were randomly assigned to one of three groups (10 mice per group): (1) Valerate-i.p., which received intraperitoneal injections of sodium valerate (200 mg/kg body weight) 30 minutes before each DID session; (2) Valerate-drinking water, which received 200 mM sodium valerate in drinking water for 30 minutes before to each DID session; and (3) Control, which received no valerate treatment. Ethanol consumption was evaluated on day 4 of each week (Wecks 1-6), and BEC was measured on day 4 of weeks 2, 4, and 6.

CCCCC(=O)[O-].[Na+] [sodium valerate]
MAPKs at the RNA level [1]: downregulated
six mitochondrial genes encoding subunits of NADH dehydrogenase (Complex I) [1]: consistently upregulated
downregulated genes among the 75 significant DEG ([1]; adjusted p <0.05): 28
upregulated genes among the 75 significant DEG ([1]; adjusted p <0.05): 47
PTGS2 expression, log2Fold change ([1]; adjusted p=0.0002): −0.65
GPR158 expression, log2Fold change ([1]; unadjusted p<0.01): −0.26
Gpr56 expression, log2Fold change ([1]; unadjusted p<0.01): 0.28
GABA levels in plasma ([2]; n=6 mice/group): not significant
GABA levels in stool ([2]; p=0.0001): elevated
GABA levels in the amygdala ([2]; p=0.01): elevated
ethanol consumption week 5, Valerate-drinking water ([3]; 200 mM in drinking water for 30 min before each DID session from week 3, n=10, p<0.05 vs control): significantly reduced
BEC week 6, Valerate-drinking water ([3]; 200 mM in drinking water for 30 min before each DID session, p<0.01 vs control): significant reductions
ethanol consumption week 5, Valerate-i.p. ([3]; 200 mg/kg i.p. 30 min before each DID session from week 3, n=10, p<0.01 vs control): significantly reduced
BEC week 6, Valerate-i.p. ([3]; 200 mg/kg i.p. 30 min before each DID session, p<0.01 vs control): significant reductions
ethanol consumption week 6, Valerate-i.p. ([3]; 200 mg/kg i.p. 30 min before each DID session, p<0.1 vs control): trend toward reduced ethanol consumption
effects during the initial weeks of treatment ([3]; both valerate groups): no significant effects
